Here are results for 15 compounds from PubChem BioAssay (NCI).

Among the test systems are EKVX NSCLC; SNB-75 CNS; HT29 colon; IGROV1 ovarian; UO-31 renal; COLO 205 colon; CAKI-1 renal; HOP-92 NSCLC; BT-549 breast.
Assay in all cases: inhibition of tumour cell growth, NCI panel, 48 h

Each structure is given as a SMILES string.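 Where inhibition never reached the appropriate level, the endpoint shown equals the highest concentration tested. Otherwise, values were interpolated linearly from a five-concentration, 48-hour dose response in 96-well plates. GI50 marks 50% less growth. At the TGI there is no net growth.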

For the compound `COc1ccc(/C=C/C(=O)c2sc(-n3nc(-c4ccccc4)cc3-c3ccccc3)nc2C)cc1`, the GI50 in the assay on EKVX NSCLC is 51.1 µM; in the assay with SNB-75 CNS it was 56.1 µM; in the assay with IGROV1 ovarian, over 100 µM; in the assay with COLO 205 colon, over 100 µM. For the same compound, the TGI in the assay with EKVX NSCLC, in the assay with SNB-75 CNS, in the assay on HT29 colon, with IGROV1 ovarian, in the assay on UO-31 renal and in the assay with COLO 205 colon was over 100 µM each time. In the assay on CAKI-1 renal, this compound registered a TGI of over 100 µM.

For `CC(SC(=O)Nc1ccc(N=Nc2ccccc2)cc1)C(=O)O` (centres undefined), the TGI was over 100 µM in the assay with EKVX NSCLC; 46.4 µM in the assay with SNB-75 CNS; over 100 µM in the assay on HT29 colon; over 100 µM with IGROV1 ovarian; over 100 µM in the assay with UO-31 renal; over 100 µM in the assay on COLO 205 colon. The compound also returned a TGI in the assay on CAKI-1 renal of over 100 µM.

In the case of `CC(=O)C1=C(O)C2C3c4c[nH]c5cccc(c45)CC3C(C)(C)N2C1=O` (centres undefined), the TGI in the assay on EKVX NSCLC was over 100 µM; in the assay on HT29 colon, over 100 µM; with HOP-92 NSCLC, over 100 µM; in the assay on IGROV1 ovarian it was over 100 µM; with UO-31 renal it was 81.6 µM; with COLO 205 colon it was over 100 µM. For the same compound, the TGI with CAKI-1 renal was over 100 µM.

Turning to `C[C@]12CCC3[C@@H](CC[C@@H]4c5nonc5CC[C@]34C)C1CC[C@@H]2O` (some centres undefined), the TGI was 75.5 µM with EKVX NSCLC; 77.8 µM in the assay with SNB-75 CNS; over 100 µM in the assay with HT29 colon; 57.7 µM in the assay on HOP-92 NSCLC; over 100 µM with IGROV1 ovarian; 71.3 µM in the assay on COLO 205 colon. In the assay with CAKI-1 renal, this compound gave a TGI of 52.6 µM.

Regarding `Cc1c(/C=N/N(C)C)oc2c1cc(O)c1ncccc12`, the TGI in the assay on EKVX NSCLC is 6.37 µM; with SNB-75 CNS, 86.6 µM; with HT29 colon, over 100 µM; in the assay with HOP-92 NSCLC, 76.8 µM; in the assay with IGROV1 ovarian, 55.7 µM; in the assay with UO-31 renal, 7.12 µM. The results for the TGI in the assay on COLO 205 colon and in the assay on CAKI-1 renal were over 100 µM and 22.4 µM, respectively.

On to `CC(=O)NC(CC(C)C)C(=O)NC(Cc1ccccc1)C(=S)N1CCCC1` (centres undefined), for which the TGI with EKVX NSCLC, in the assay with SNB-75 CNS, in the assay on HT29 colon, in the assay on HOP-92 NSCLC, in the assay with IGROV1 ovarian and in the assay with UO-31 renal was over 100 µM throughout. Besides, the TGI in the assay on COLO 205 colon and with CAKI-1 renal was over 100 µM throughout.

Regarding `CC(=O)OC1COC(n2c(=S)n(-c3ccccc3)c(=O)c3ccccc32)C(OC(C)=O)C1OC(C)=O` (centres undefined), the TGI in the assay on EKVX NSCLC, with SNB-75 CNS, in the assay on HT29 colon, in the assay on HOP-92 NSCLC, with IGROV1 ovarian and with UO-31 renal was over 100 µM each time. Further, the TGI with COLO 205 colon and with CAKI-1 renal was over 100 µM each time.

As to `Cc1ccc(S(=O)(=O)N/N=C(/c2nc3ccc([N+](=O)[O-])cc3[nH]c2=O)C(O)c2ccc(C(O)/C(=N\NS(=O)(=O)c3ccc(C)cc3)c3nc4ccc([N+](=O)[O-])cc4[nH]c3=O)cc2)cc1` (centres undefined), the TGI in the assay with EKVX NSCLC, with SNB-75 CNS, in the assay on HT29 colon, in the assay on HOP-92 NSCLC, with IGROV1 ovarian and in the assay with UO-31 renal was over 100 µM in each case. The TGI in the assay on COLO 205 colon is over 100 µM.

As to `CC(C)(C)C(C#N)(C#N)c1ccc(C(C#N)(C#N)C(C)(C)C)nn1`, the TGI in the assay on EKVX NSCLC is over 100 µM; with SNB-75 CNS, 75.2 µM; with HT29 colon, over 100 µM; in the assay with HOP-92 NSCLC it was over 100 µM; in the assay with IGROV1 ovarian it was over 100 µM; with UO-31 renal, over 100 µM. In addition, the TGI with COLO 205 colon and in the assay on CAKI-1 renal was over 100 µM in each case.

With `CC1(C)C(=O)C(C)(C)C1=S`, the TGI in the assay on EKVX NSCLC, with SNB-75 CNS, with HT29 colon, with IGROV1 ovarian, in the assay on UO-31 renal and in the assay on COLO 205 colon was over 100 µM in each case. In addition, in the assay with CAKI-1 renal, the TGI was over 100 µM.

In the case of `N#C/C(=C/NC(=S)c1ccncc1)C(N)=O`, the TGI with EKVX NSCLC, in the assay with SNB-75 CNS, in the assay with HT29 colon, in the assay on HOP-92 NSCLC, in the assay on IGROV1 ovarian and in the assay with UO-31 renal was over 100 µM throughout. Besides, the TGI in the assay with COLO 205 colon, in the assay on BT-549 breast and in the assay on CAKI-1 renal was over 100 µM throughout.

In the case of `O=C(Nc1nc2c(ncn2C2OC(CO)C(O)C2O)c(=O)[nH]1)c1ccccc1` (centres undefined), the TGI in the assay with EKVX NSCLC, with SNB-75 CNS, with HT29 colon, with HOP-92 NSCLC, in the assay on IGROV1 ovarian and with UO-31 renal was over 100 µM in each case. Further, the TGI in the assay on COLO 205 colon and in the assay on CAKI-1 renal was over 100 µM throughout.

For the compound `O=P(O)(O)C1(P(=O)(O)O)CC1`, the TGI with EKVX NSCLC, in the assay on SNB-75 CNS, in the assay with HT29 colon, in the assay with IGROV1 ovarian, in the assay on UO-31 renal and in the assay on COLO 205 colon was over 100 µM in each case. The compound also displayed a TGI in the assay on CAKI-1 renal of over 100 µM.

For the compound `CCCCCCC[CH2][Sn]1([CH2]CCCCCCC)[O]C(=O)c2cccnc2[O]1`, the GI50 with EKVX NSCLC, in the assay on SNB-75 CNS, in the assay on HT29 colon, in the assay with HOP-92 NSCLC, with IGROV1 ovarian and in the assay with UO-31 renal was over 100 µM throughout. For the same compound, the GI50 in the assay with COLO 205 colon and in the assay on CAKI-1 renal was over 100 µM in each case. Moreover, the TGI with EKVX NSCLC, with SNB-75 CNS, with HT29 colon, with HOP-92 NSCLC, with IGROV1 ovarian and with UO-31 renal was over 100 µM in each case. Besides, the TGI with COLO 205 colon and in the assay with CAKI-1 renal was over 100 µM each time.

Regarding `Nc1ncnc2c1ncn2C1CC(OCc2ccccc2[N+](=O)[O-])C(CO)O1` (centres undefined), the TGI with EKVX NSCLC is over 50 µM; with HT29 colon, over 50 µM; with HOP-92 NSCLC, over 50 µM; in the assay with IGROV1 ovarian it was over 50 µM; in the assay with UO-31 renal, 48 µM; in the assay with COLO 205 colon, 16.9 µM.
